Results published in patent US6706740B2, “Fungicidal heterocyclic aromatic amides and their compositions, methods of use and preparation” (Dow AgroSciences LLC, priority 1999, dated 2004).
Like-named read-outs stand apart in the source and are kept apart here.

Experiments:
[1] = system: Magnaporthe grisea (Pyricularia oryzae—PYRIOR); assay: microbe, parasite or virus in culture; format: cell-based; settings: for inhibition at 25 ppm: Pyricularia oryzae, read-out: PYRIOR in vitro Growth Inhibition
[2] = system: Puccinia recondita—PUCCRT; assay: Brown Rust of Wheat, in vivo whole plant, 24 Hour Protectant; settings: Puccinia; 100 ppm spray, 24 hour protectant, wheat; control of fungal infection vs untreated plants; read-out: PUCCRT in vivo 1 Day Protectant
[3] = system: Mycosphaerella graminicola (Septoria tritici—SEPTTR); assay: In vitro fungal growth inhibition, Mycosphaerella graminicola (SEPTTR); format: cell-based; settings: for inhibition at 25 ppm: Zymoseptoria tritici, 25 ppm in growth medium, read-out: SEPTTR in vitro Growth Inhibition
[4] = system: Stagonospora nodorum (Leptosphaeria nodorum—LEPTNO); assay: In vitro fungal growth inhibition, Stagonospora nodorum (LEPTNO); format: cell-based; settings: for inhibition at 25 ppm: Leptosphaeria, 25 ppm in growth medium, read-out: LEPTNO in vitro Growth Inhibition
[5] = system: Phytophthora infestans—PHYTIN; assay: whole plant or invertebrate; format: in vivo; settings: Phytophthora, in Solanum lycopersicum, 24 h, read-out: PHYTIN in vivo 1 Day Protectant
Erysiphe graminis—ERYSGT = assay: Powdery Mildew of Wheat, in vivo whole plant, 24 Hour Protectant; settings: for pest or weed control at 100 ppm: Erysiphe, 100 ppm spray, 24 hour protectant, wheat, read-out: ERYSGT in vivo 1 Day Protectant
[6] = system: Rhizoctonia solani (RHIZSO); assay: microbe, parasite or virus in culture; format: cell-based; settings: for inhibition at 25 ppm: Rhizoctonia solani, read-out: RHIZSO in vitro Growth Inhibition
Ustilago maydis (USTIMA) = assay: microbe, parasite or virus in culture; format: cell-based; settings: for inhibition at 25 ppm: Mycosarcoma maydis, read-out: USTIMA in vitro Growth Inhibition
[7] = system: Phytophthora infestans (PHYTIN); assay: microbe, parasite or virus in culture; format: cell-based; settings: for inhibition at 25 ppm: Phytophthora infestans, read-out: PHYTIN in vitro Growth Inhibition
[8] = system: Leptosphaeria nodorum—LEPTNO; assay: Glume Blotch of Wheat, in vivo whole plant, 24 Hour Protectant; settings: Leptosphaeria; 100 ppm spray, 24 hour protectant, wheat; control of fungal infection vs untreated plants; read-out: LEPTNO in vivo 1 Day Protectant
[9] = control of fungal infection vs untreated plants

Row | Compound | inhibition at 25 ppm [1] | pest or weed control at 100 ppm [2] | inhibition at 25 ppm [3] | inhibition at 25 ppm [4] | pest or weed control at 100 ppm [5] | pest or weed control at 100 ppm (Erysiphe graminis—ERYSGT; [9]) | inhibition at 25 ppm [6] | inhibition at 25 ppm (Ustilago maydis (USTIMA)) | inhibition at 25 ppm [7] | pest or weed control at 100 ppm [8] | pest or weed control at 100 ppm (Erysiphe graminis—ERYSGT; % control of fungal infection vs untreated plants) | PYRIOR in vitro Growth Inhibition [1] | SEPTTR in vitro Growth Inhibition [3] | LEPTNO in vitro Growth Inhibition [4] | ERYSGT in vivo 1 Day Protectant (Erysiphe graminis—ERYSGT) | RHIZSO in vitro Growth Inhibition [6] | USTIMA in vitro Growth Inhibition (Ustilago maydis (USTIMA)) | PHYTIN in vitro Growth Inhibition [7]
1 | COc1ccnc(C(=O)NCC(C)(C)Sc2ncc(C(F)(F)F)cc2Cl)c1O [Compound 244] | > 80% | < 25% | > 80% | > 80% | < 25% | < 25% | < 80% | < 80% | < 80% | 25 to 74% | – | – | – | – | – | – | – | –
2 | COc1ccnc(C(=O)NC2CCC[C@H]3CC(CCC=C(C)C)=CC[C@@H]23)c1O (stereo partly drawn) [Compound 286] | < 80% | < 25% | < 80% | > 80% | < 25% | < 25% | > 80% | < 80% | < 80% | 25 to 74% | – | – | – | – | – | – | – | –
3 | COc1ccnc(C(=O)N[C@H]2COC(=O)[C@H](Cc3ccccc3)[C@@H](OC(=O)C(C)C)[C@H](C)OC2=O)c1OC(=O)c1ccc(Cl)c(Cl)c1 [Compound 644] | < 80% | – | < 80% | > 80% | – | – | < 80% | < 80% | < 80% | – | – | – | – | – | – | – | – | –
4 | COc1ccnc(C(=O)N[C@H]2COC(=O)[C@H](Cc3ccccc3)[C@@H](OC(=O)C(C)C)[C@H](C)OC2=O)c1OC(=O)c1ccccc1Br [Compound 647] | < 80% | – | < 80% | > 80% | – | – | < 80% | < 80% | < 80% | – | – | – | – | – | – | – | – | –
5 | COc1ccnc(C(=O)N[C@H]2COC(=O)[C@H](Cc3ccccc3)[C@@H](OC(=O)C(C)C)[C@H](C)OC2=O)c1OC(=O)C(Cl)c1ccccc1 (stereo partly drawn) [Compound 649] | > 80% | – | < 80% | > 80% | – | – | < 80% | < 80% | < 80% | – | – | – | – | – | – | – | – | –
6 | COc1ccnc(C(=O)N[C@H]2COC(=O)[C@H](Cc3ccccc3)[C@@H](OC(=O)C(C)C)[C@H](C)OC2=O)c1OC(=O)/C=C/c1ccccc1 [Compound 651] | < 80% | – | < 80% | > 80% | – | – | < 80% | < 80% | < 80% | – | – | – | – | – | – | – | – | –
7 | COc1ccnc(C(=O)N[C@H]2COC(=O)[C@H](Cc3ccccc3)[C@@H](OC(=O)C(C)C)[C@H](C)OC2=O)c1OC(=O)c1ccc(Cl)nc1 [Compound 669] | < 80% | – | < 80% | > 80% | < 25% | – | < 80% | < 80% | < 80% | – | < 25% | – | – | – | – | – | – | –
8 | COc1ccnc(C(=O)N[C@H]2COC(=O)[C@H](Cc3ccccc3)[C@@H](OC(=O)C(C)C)[C@H](C)OC2=O)c1OC(=O)c1cc(Cl)cnc1Cl [Compound 671] | < 80% | – | < 80% | > 80% | – | – | < 80% | < 80% | < 80% | – | – | – | – | – | – | – | – | –
9 | COc1ccnc(C(=O)N[C@H]2COC(=O)[C@H](Cc3ccccc3)[C@@H](OC(=O)C(C)C)[C@H](C)OC2=O)c1OC(=O)c1ccnc(Cl)c1 [Compound 672] | < 80% | – | < 80% | > 80% | – | – | < 80% | < 80% | < 80% | – | – | – | – | – | – | – | – | –
10 | COc1ccnc(C(=O)N[C@H]2COC(=O)[C@H](Cc3ccccc3)[C@@H](OC(=O)C(C)C)[C@H](C)OC2=O)c1OC(=O)Cc1cccs1 [Compound 675] | > 80% | – | < 80% | > 80% | – | – | < 80% | < 80% | < 80% | – | – | – | – | – | – | – | – | –
11 | COc1ccnc(C(=O)N[C@H]2COC(=O)[C@H](Cc3ccccc3)[C@@H](OC(=O)C(C)C)[C@H](C)OC2=O)c1OC(=O)c1snnc1C [Compound 676] | < 80% | – | < 80% | > 80% | – | – | < 80% | < 80% | < 80% | – | – | – | – | – | – | – | – | –
12 | COc1ccnc(C(=O)N[C@H]2COC(=O)[C@H](Cc3ccccc3)[C@@H](OC(=O)C(C)C)[C@H](C)OC2=O)c1OC(=O)c1c(-c2c(Cl)cccc2Cl)noc1C [Compound 677] | < 80% | – | < 80% | > 80% | – | – | < 80% | < 80% | < 80% | – | – | – | – | – | – | – | – | –
13 | C=CCOC(=O)Oc1c(OC)ccnc1C(=O)N[C@H]1COC(=O)[C@H](Cc2ccccc2)[C@@H](OC(=O)C(C)C)[C@H](C)OC1=O [Compound 681] | > 80% | – | < 80% | > 80% | – | – | > 80% | < 80% | < 80% | – | – | – | – | – | – | – | – | –
14 | COc1ccnc(C(=O)N[C@H]2COC(=O)[C@H](Cc3ccccc3)[C@@H](OC(=O)C(C)C)[C@H](C)OC2=O)c1OC(=O)Oc1ccccc1 [Compound 697] | < 80% | – | < 80% | > 80% | – | – | < 80% | < 80% | < 80% | – | – | – | – | – | – | – | – | –
15 | CCCSC(=O)Oc1c(OC)ccnc1C(=O)N[C@H]1COC(=O)[C@H](Cc2ccccc2)[C@@H](OC(=O)C(C)C)[C@H](C)OC1=O [Compound 699] | > 80% | – | < 80% | > 80% | – | – | < 80% | < 80% | < 80% | – | – | – | – | – | – | – | – | –
16 | CON=C(c1ccc(NC(=O)c2nccc(OC)c2OC(C)=O)cc1)c1cccc(C(F)(F)F)c1 [Compound 707] | – | – | – | – | – | – | – | – | – | – | – | + (key: +: at least 80% growth inhibition; −: less than 80% growth inhibition) | − (key: +: at least 80% growth inhibition; −: less than 80% growth inhibition) | − (key: +: at least 80% growth inhibition; −: less than 80% growth inhibition) | + + | − (key: +: at least 80% growth inhibition; −: less than 80% growth inhibition) | − (key: +: at least 80% growth inhibition; −: less than 80% growth inhibition) | − (key: +: at least 80% growth inhibition; −: less than 80% growth inhibition)
17 | COCCC(=O)Oc1c(OC)ccnc1C(=O)Nc1ccc(C(=NOC)c2cccc(C(F)(F)F)c2)cc1 [Compound 708] | – | – | – | – | – | – | – | – | – | – | – | − (key: +: at least 80% growth inhibition; −: less than 80% growth inhibition) | + (key: +: at least 80% growth inhibition; −: less than 80% growth inhibition) | + (key: +: at least 80% growth inhibition; −: less than 80% growth inhibition) | + + | − (key: +: at least 80% growth inhibition; −: less than 80% growth inhibition) | − (key: +: at least 80% growth inhibition; −: less than 80% growth inhibition) | − (key: +: at least 80% growth inhibition; −: less than 80% growth inhibition)
